From patent publication US20180221336A1, “DOSE SPARING KETOROLAC FORMULATIONS AND METHODS AND DEVICES FOR USE WITH SAME” (SteadyMed, Ltd., priority 2017, published 2018)
Where two headings read alike, the source gives them in different places.

Assays:
[1] = Safety assessments (adverse events, vital signs, ECG, injection/infusion site) in the crossover study in healthy subjects
Protocol: Twelve (12) subjects were randomized to receive a total daily dose of 120 mg Ketorolac tromethamine (Ketorolac Tromethamine Injection, USP 30 mg/mL, manufactured by Hospira Inc., Lot No.: 51600LL) administered as either: (Treatment A) one continuous SC infusion of 4 mL to the abdomen over 24 hours at a steady rate of 5 mg/hr (0.167 mL/hr), or (Treatment B) four IM bolus injections of 30 mg (1 mL) to alternating gluteus maximus muscle every 6 hours. For the continuous SC infusion, the MedFusion 3500 syringe pump was assembled with Animas Inset Infusion Set 23 inch 6 mm 10/box Grey (100-182-00), B-D Luer-Lok Syringe 5 mL and B-D 20 G 1 inch needle (Becton Dickinson). The treatments were separated by a washout period of ≥4 days.
All subjects underwent pre-dose (each period) and post-study assessments including physical examinations, routine laboratory tests, vital signs, and 12-lead electrocardiograms (ECGs). Alcohol and drug screen were conducted before each dosing period. All subjects were between 19 and 55 years old with a body mass index (BMI) between 18.5 and 30.0 kg/m2. Subjects had to refrain from the use of any prescription medications including over-the-counter products, herbal products or vitamin supplement within 14 days of dosing.

[2] = oral KT; literature value used in simulations; cited from earlier work
[3] = Simulation of plasma Ketorolac concentrations with the MMSPK population pharmacokinetic model (NONMEM); design: species or system human; conditions: population PK model parameter estimate
Description: A modified version of the Mandema-Stanski published model for Ketorolac (termed the Modified Mandema-Stanski PK model, or the MMSPK Model) was developed in steps; a base model development step for description of structural components of the model followed by a covariate analysis. For the latter the base model output was used to conduct a graphical evaluation of the covariates at first. A full model including all relevant covariate effects (e.g. each covariate-parameter relationship which was significant during single covariate model testing was included in the full model) was then developed. A final model was chosen by retaining only the statistically significant covariate effects. The parameters in the population models were estimated using the NONMEM software program (version 7.3). The stochastic approximation estimation method (SAEM) was used for estimation. A visual predictive check (VPC) was conducted for the model using all data.
Simulations: Once the model was qualified, stochastic simulations were conducted to assess the expected range of concentrations following several dose regimens. […]
For each simulation scenario 800 subjects were simulated. […] The simulation outputs were assessed graphically and summaries of key metrics (see Table 1) were summarized and tabled. […]

[4] = for plasma Ketorolac concentration (predose Ctrough), Geometric LSM: Treatment B four IM bolus injections every 6 hours
Protocol: (§1) Twelve (12) subjects were randomized to receive a total daily dose of 120 mg Ketorolac tromethamine (Ketorolac Tromethamine Injection, USP 30 mg/mL, manufactured by Hospira Inc., Lot No.: 51600LL) administered as either: (Treatment A) one continuous SC infusion of 4 mL to the abdomen over 24 hours at a steady rate of 5 mg/hr (0.167 mL/hr), or (Treatment B) four IM bolus injections of 30 mg (1 mL) to alternating gluteus maximus muscle every 6 hours. […] The treatments were separated by a washout period of ≥4 days. The total daily dose of 120 mg Ketorolac tromethamine administered as 4×30 mg/mL IM bolus injections is a recommended treatment for subjects under 65 years of age according to the product labeling.
(§2) Blood samples for the determination of plasma Ketorolac following continuous SC infusion (Treatment A) were collected at the following time points: pre-dose (0 hour), 0.25, 0.5, 1, 1.5, 2, 4, 6, 8, 10, 12, 14, 16, 18, 20, 22, 23, 24 (2 blood samples were collected at the 24 hour time point; 1 immediately prior to the end of infusion and 1 immediately following end of infusion), 24.167, 24.33, 24.5, 25, 26, 28, 30, 32, 36, and at 48 hours post-dose. The time for post-dose blood collection are expressed relative to the start of infusion.
(§3) Blood samples for the determination of plasma Ketorolac following IM injections (Treatment B) were collected at the following time points: pre-dose (0 hour), 0.167, 0.25, 0.5, 0.75, 1, 1.25, 1.5, 2, 3, 4, 6 (pre-dose), 6.25, 6.5, 6.75, 7, 8, 10, 12 (pre-dose), 12.25, 12.75, 13, 14, 16, 18 (pre-dose), 18.25, 18.5, 18.75, 19, 20, 22, 24, 28, 32, and at 48 hours post-dose. The time for post-dose blood collection are expressed relative to the first IM injection.
(§4) Ketorolac plasma concentrations were determined using a validated liquid chromatographic tandem mass spectrometry (LC-MS/MS) method, with a lower limit of quantitation (LLOQ) of 10.0 ng/mL9. The validated plasma Ketorolac concentration range was 10.0 to 5000 ng/mL. Assay performance was monitored using quality control (QC) samples at concentrations of 30.0 ng/mL, 200 ng/mL, and 3800 ng/mL; the % CV for the QCs ranged from 1.3% to 15.1% and accuracy was 91.6-102.5%.
(§5) Non-compartmental PK parameters were calculated from Ketorolac concentrations-time data in plasma using Phoenix® WinNonlin® Professional (Versions 6.3; Pharsight, Mountain View, Calif.). […] AUC0-inf was calculated as the sum AUC0-last plus the ratio of the last measurable plasma concentration (Clast) to kel; AUC0-last, AUC0-24, and AUCtau were calculated by the linear trapezoidal summation method; AUCext was calculated as 1-AUC0-last/AUC0-inf multiplied by 100, Cmax, Ctrough, tmax were reported as observed values; Cavg was calculated as AUCtau divided by 6 hours for the IM administration; Css was calculated as the average of the concentrations from the time steady-state was reached until the end of SC infusion; CL/F was calculated as dose/AUC0-inf (for SC administration) or dose/AUCtau (for IM administration); Vz/F was calculated as (CL/F)/kel); kel was calculated by linear least-square regression analysis using the maximum number of points in the terminal log-linear phase (using 3 or more non-zero plasma concentrations); t½ was calculated as ln(2)/kel.
(§6) Statistical analyses were conducted to compare Ketorolac AUC0 24, AUC0 last, and Cmax following continuous SC infusion and repeat IM bolus injections. A SAS® mixed model procedure was performed on the natural log (ln)-transformed PK parameters.

[5] = clinical; conditions: human, plasma
Protocol: as §1, §2, §3, §4, §5, §6

[6] = Treatment A (Test, N = 11): continuous SC infusion over 24 hours
[7] = Treatment A versus Treatment B, 100 * (test/reference)
[8] = Treatment A: 120 mg continuous SC infusion over 24 hours, N = 11, geom. mean (geom. CV %)
[9] = Treatment A: 120 mg continuous SC infusion over 24 hours, N = 11, mean ± SD
[10] = Treatment A, individual spline (quadratic plateau) regression, N 11
[11] = Treatment A, individual spline (quadratic plateau) regression, N 11, listed as Ketorolac tromethamine
[12] = Treatment B (Reference, N = 12): four IM bolus injections of 30 mg every 6 hours

## O=C(c1ccccc1)c1ccc2n1CCC2C(=O)O (racemic) [Ketorolac, (±)-5-benzoyl-2,3-dihydro-1H-pyrrolizine-1-carboxylic acid, compound with 2-amino-2-(hydroxymethyl)-1,3-propanediol]
[1]; Treatment A, 13 minutes following completion of the 24-hour infusion, resolved in approximately 2 days, possibly related to study drug
  infusion site adverse event: One subject experienced mild infusion site pain
[1]; Treatment B, approximately 6.5 hours after the 4th IM injection, resolved in 15 days, not related to study drug
  injection site adverse event: Another subject experienced mild injection site hemorrhage
[1]; each of Treatment A and Treatment B
  subjects experiencing TEAEs following each treatment arm: 2 subjects
[1]; total dose of 120 mg via continuous SC infusion
  safety and tolerability: safe and well tolerated
[1]; whole study
  vital sign, ECG, or injection/infusion site reaction results: no clinically significant trends
[1]; whole study, 12 subjects
  subjects experiencing TEAEs: 4 (33%) subjects
[1]; whole study, both treatments
  deaths or serious adverse events (SAEs): no deaths or serious adverse events (SAEs)
  number of mild treatment emergent adverse events (TEAEs): 7
[2]
  Ka: 11 h⁻¹
  absorption lag time: 0.2 h
[3]
  CL estimate (MMSPK model): 2.92 L/h
  estimated Ka for IM absorption (MMSPK model): 11.6 h⁻¹
[4]; [6]
  AUC0-24 Geometric LSM: 21510 ng·h/mL
  AUC0-last Geometric LSM: 28260 ng·h/mL
[4]; Treatment A SC infusion, Helmert contrast
  overall Tss (time to steady-state): 18 h
[4]; Treatment A versus Treatment B
  overall exposure (AUC0-24 and AUC0-last), SC infusion compared with IM bolus injections: similar
[4]; Treatment A versus Treatment B, 120 mg total daily dose
  Cmax lower following continuous SC infusion compared to 4 IM bolus injections: 40%
[4]; [7]
  AUC0-24 Geometric Mean Ratio: 91.23%
  AUC0-last Geometric Mean Ratio: 101.53%
  Cmax—all Geometric Mean Ratio: 59.86%
[4]; [8]
  AUC0-last: 28.48 (30.9) μg * hr/mL
  Cmax—all: 1.344 (25.6) μg/mL
[4]; [9]
  AUC%extrap: 1.96 ± 1.2860%
  Css: 1238 ± 299.6 ng/mL
[4]; Treatment A: 120 mg continuous SC infusion over 24 hours, mean ± SD
  Kel: 0.1014 ± 0.01213 h⁻¹
[4]; Treatment A: 120 mg continuous SC infusion over 24 hours, mean ± SD, listed as Ketorolac tromethamine
  CL/F: 2.924 ± 0.9799 L/h
[4]; [10]
  Plateau Concentration, Mean (SD): 1053 (234.5) ng/mL
  Plateau Concentration, Median (Min, Max): 1084 ng/mL
  Time to Steady-State, Mean (SD): 6.30 (4.17) hr
  Time to Steady-State, Median (Min, Max): 4 h
[4]; [11]
  Plateau Concentration, Median (Min, Max): 1084 (572.4, 1426) ng/mL
  Time to Steady-State, Median (Min, Max): 3.68 (1.98, 13.63) hr
[4]; [12]
  AUC0-24 Geometric LSM: 23580 ng·h/mL
  AUC0-last Geometric LSM: 27830 ng·h/mL
[4]; Hour 6
  plasma Ketorolac concentration (predose Ctrough), Geometric LSM: 302.545
[4]; Hour 12
  plasma Ketorolac concentration (predose Ctrough), Geometric LSM: 368.216
[4]; Hour 18
  plasma Ketorolac concentration (predose Ctrough), Geometric LSM: 432.393
[4]; Hour 24
  plasma Ketorolac concentration (predose Ctrough), Geometric LSM: 564.178
[4]; following IM injections (Treatment B)
  Ctrough (LSM) at the highest: 564.2 ng/mL
[4]; following SC infusion (Treatment A)
  Individual Tss (spline method), range: 2.0 to 14 h
[4]; following SC infusion (Treatment A), Helmert contrast
  geometric LSM Css: 1160 ng/mL
[5]; 120 mg
  half-life: ~7 h
[5]; im, 30 mg
  AUC: 6810 ng·h/mL
  AUC(0-t): 23600 ng·h/mL
  Cmax: 2240 ng/mL
  Tmax: 9.25 h
  Vd/F: 30.3 ± 7.69 L
  half-life: 7.02 ± 1.44 h
[5]; sc, 120 mg
  AUC(0-inf): 29100 ng·h/mL
  AUC(0-t): 21500 ng·h/mL
  Cmax: 1340 ng/mL
  Tmax: 23 h
  Vd/F: 29.1 ± 10.9 L
  concentration at 4 h: 617 ng/mL
  concentration at 6 h: 718 ng/mL
  concentration at 8 h: 838 ng/mL
  concentration at 10 h: 894 ng/mL
  concentration at 12 h: 946 ng/mL
  concentration at 14 h: 1020 ng/mL
  concentration at 16 h: 1050 ng/mL
  concentration at 18 h: 1160 ng/mL
  concentration at 20 h: 1210 ng/mL
  concentration at 22 h: 1200 ng/mL
  concentration at 23 h: 1230 ng/mL
  concentration at 24 h: 1170 ng/mL
  half-life: 6.93 ± 0.84 h
